Inconclusive results and toxic doses are left out. No stated cut-off is given here; in the data, active means T/C of 150% or more; inactive means T/C below 125%.
Test system: L1210 leukemia ip in BDF1 mice, survival T/C
Experiment: NCI In Vivo Anticancer Drug Screen. Data for tumor model L1210 Leukemia (intraperitoneal) in B6D2F1 (BDF1) mice
Details: endpoint: mean survival time, higher = longer survival
Method in brief: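 In this screen, tumor-bearing mice given compound are compared to those given vehicle, and their survival values are reported as a treated-to-control quotient.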

[1] = dose: 100.0 mg/kg/injection, schedule: Q04DX002 (ip), vehicle: saline with Tween-80
[2] = dose: 100.0 mg/kg/injection, schedule: Q04DX003 (ip), vehicle: Klucel (hydroxypropylcellulose) (HPC)
[3] = dose: 200.0 mg/kg/injection, schedule: Q04DX002 (ip), vehicle: saline with Tween-80
[4] = dose: 200.0 mg/kg/injection, schedule: Q04DX003 (ip), vehicle: Klucel (hydroxypropylcellulose) (HPC)
[5] = dose: 400.0 mg/kg/injection, schedule: Q04DX002 (ip), vehicle: saline with Tween-80
[6] = dose: 400.0 mg/kg/injection, schedule: Q04DX003 (ip), vehicle: Klucel (hydroxypropylcellulose) (HPC)
[7] = dose: 100.0 mg/kg/injection, schedule: Q01DX009 (ip), vehicle: Klucel (hydroxypropylcellulose) (HPC)
[8] = dose: 200.0 mg/kg/injection, schedule: Q01DX009 (ip), vehicle: Klucel (hydroxypropylcellulose) (HPC)
[9] = dose: 100.0 mg/kg/injection, schedule: Q04DX003 (ip), vehicle: saline with Tween-80

Measured: T/C

CCCCC(CCCC)(C(=O)OCC)C(=O)OCC
inactive: [1] 94 % of control | [2] 96 % of control | [3] 94 % of control | [4] 105 % of control | [5] 94 % of control | [6] 91 % of control

Cn1nnc(CC[N+]2(C)CCOCC2)n1
inactive: dose: 100.0 mg/kg/injection, schedule: Q04DX003 (ip), vehicle: saline 94 % of control | dose: 200.0 mg/kg/injection, schedule: Q04DX003 (ip), vehicle: saline 96 % of control

CCOC(=O)C(C(=O)OCC)C(CC)c1ccccc1 (stereo unspecified)
inactive: dose: 100.0 mg/kg/injection, schedule: Q01DX009 (ip), vehicle: saline with Tween-80 101 % of control | [1] 103 % of control | dose: 200.0 mg/kg/injection, schedule: Q01DX009 (ip), vehicle: saline with Tween-80 92 % of control | [3] 100 % of control | dose: 400.0 mg/kg/injection, schedule: Q01DX009 (ip), vehicle: saline with Tween-80 95 % of control | [5] 95 % of control

COC1=CC(C)(C)c2ccccc2C1=O
inactive: dose: 50.0 mg/kg/injection, schedule: Q01DX009 (ip), vehicle: saline sonified 97 % of control | dose: 100.0 mg/kg/injection, schedule: Q01DX009 (ip), vehicle: saline sonified 99 % of control | [2] 97 % of control | dose: 200.0 mg/kg/injection, schedule: Q01DX009 (ip), vehicle: saline sonified 97 % of control | [4] 115 % of control | [6] 97 % of control

O=[N+]([O-])c1ccc(/C=N/O)o1
inactive: dose: 10.0 mg/kg/injection, schedule: Q04DX002 (ip), vehicle: Klucel (hydroxypropylcellulose) (HPC) 102 % of control | dose: 20.0 mg/kg/injection, schedule: Q04DX002 (ip), vehicle: Klucel (hydroxypropylcellulose) (HPC) 117 % of control | dose: 40.0 mg/kg/injection, schedule: Q04DX002 (ip), vehicle: Klucel (hydroxypropylcellulose) (HPC) 104 % of control | dose: 50.0 mg/kg/injection, schedule: Q01DX001 (ip), vehicle: saline 111 % of control

O=C1CCOc2ccc3ccccc3c21
inactive: dose: 100.0 mg/kg/injection, schedule: Q01DX001 (ip), vehicle: Klucel (hydroxypropylcellulose) (HPC) 101 % of control | [7] 109 % of control | dose: 200.0 mg/kg/injection, schedule: Q01DX001 (ip), vehicle: Klucel (hydroxypropylcellulose) (HPC) 98 % of control | [8] 101 % of control | dose: 400.0 mg/kg/injection, schedule: Q01DX001 (ip), vehicle: Klucel (hydroxypropylcellulose) (HPC) 90 % of control | dose: 400.0 mg/kg/injection, schedule: Q01DX009 (ip), vehicle: Klucel (hydroxypropylcellulose) (HPC) 111 % of control

O=Cc1[nH]c(=O)[nH]c(=O)c1Cc1ccc(Cl)cc1
inactive: [9] 98 % of control | dose: 200.0 mg/kg/injection, schedule: Q04DX003 (ip), vehicle: saline with Tween-80 102 % of control

CC[N+](C)(CC)/N=C(\C)c1ccccc1
inactive: [9] 105 % of control

N#CC1CN(c2ccccc2)CC1=O (stereo unspecified)
inactive: [7] 97 % of control | [8] 96 % of control

CC(=O)O/N=C1\c2ccccc2-c2ccc([N+](=O)[O-])cc21
inactive: dose: 75.0 mg/kg/injection, schedule: Q01DX009 (ip), vehicle: Klucel (hydroxypropylcellulose) (HPC) 93 % of control | [2] 97 % of control | dose: 150.0 mg/kg/injection, schedule: Q01DX009 (ip), vehicle: Klucel (hydroxypropylcellulose) (HPC) 86 % of control | [4] 95 % of control | dose: 300.0 mg/kg/injection, schedule: Q01DX009 (ip), vehicle: Klucel (hydroxypropylcellulose) (HPC) 86 % of control | [6] 100 % of control

CCCCC[As](=O)(O)O
inactive: dose: 1.5 mg/kg/injection, schedule: Q01DX001 (ip), vehicle: carboxymethylcellulose (CMC) 104 % of control | dose: 3.0 mg/kg/injection, schedule: Q01DX001 (ip), vehicle: carboxymethylcellulose (CMC) 102 % of control | dose: 6.0 mg/kg/injection, schedule: Q01DX001 (ip), vehicle: carboxymethylcellulose (CMC) 113 % of control

O=[N+]([O-])c1ccccc1N=Nc1c(O)[nH]c2ccc(Cl)cc12
inactive: dose: 100.0 mg/kg/injection, schedule: Q01DX001 (ip), vehicle: saline 95 % of control | dose: 400.0 mg/kg/injection, schedule: Q01DX001 (ip), vehicle: saline 92 % of control
